Laboratory results: ChEMBL document CHEMBL1201862, “PubChem BioAssay data set” (2004)
“And” between values parts separate entries of the source, which are not always exact repeats. Equal values may be shown once. Values belong to the compound of their own block, whether it stands above or below them. The source made the active and inactive calls.

Columns and labels:
[1] = target: Latent membrane protein 1 (Human herpesvirus 4 (strain B95-8), UniProt P03230); assay: TES1-eGFP NF-kB reporter inhibition versus Tet-On dsRED, dose response, selectivity assay for LMP1 NF-kB inhibitor project, imaging, HEK293T, dual-color eGFP/dsRED, cherry-picks (AID 588398); type: functional, cell-based
Chain of Latent membrane protein 1 (P03230 whole entry): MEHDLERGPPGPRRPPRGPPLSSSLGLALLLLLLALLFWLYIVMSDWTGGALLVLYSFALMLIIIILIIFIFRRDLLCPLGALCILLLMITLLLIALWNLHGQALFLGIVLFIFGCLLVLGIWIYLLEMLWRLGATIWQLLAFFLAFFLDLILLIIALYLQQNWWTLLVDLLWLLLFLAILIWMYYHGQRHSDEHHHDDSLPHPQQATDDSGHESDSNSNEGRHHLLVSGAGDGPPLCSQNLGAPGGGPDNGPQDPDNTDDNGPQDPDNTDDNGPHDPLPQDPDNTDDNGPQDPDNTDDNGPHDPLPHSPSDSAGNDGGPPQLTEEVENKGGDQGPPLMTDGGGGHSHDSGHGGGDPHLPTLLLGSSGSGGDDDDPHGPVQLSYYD

[2] = target: T1, Orexin/Hypocretin receptor type 1 (Homo sapiens, UniProt O43613); assay: Homogeneous Time Resolved Fluorescence (HTRF)-based cell-based high throughput dose response assay for antagonists of the orexin 1 receptor (OX1R; HCRTR1). [Related pubchem assays (depositor defined):AID434989, AID435008, AID463079, AID485270, AID492963, AID492964, AID492965, AID493232, AID504717, AID504718]; type: functional
T1 sequence (O43613 whole entry): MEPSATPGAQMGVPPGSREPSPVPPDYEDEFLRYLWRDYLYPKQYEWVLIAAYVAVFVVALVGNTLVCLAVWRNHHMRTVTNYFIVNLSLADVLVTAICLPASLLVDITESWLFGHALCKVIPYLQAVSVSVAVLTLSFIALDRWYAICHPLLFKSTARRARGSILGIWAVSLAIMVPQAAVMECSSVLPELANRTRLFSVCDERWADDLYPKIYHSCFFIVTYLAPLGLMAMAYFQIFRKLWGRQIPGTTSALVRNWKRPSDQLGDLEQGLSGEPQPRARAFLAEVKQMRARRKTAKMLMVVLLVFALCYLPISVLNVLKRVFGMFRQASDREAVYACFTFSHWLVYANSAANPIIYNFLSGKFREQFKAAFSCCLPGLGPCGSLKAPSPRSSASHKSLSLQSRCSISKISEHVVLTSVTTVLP

[3] = target: Photoreceptor-specific nuclear receptor (Homo sapiens, UniProt Q9Y5X4); assay: NR2E3 inverse agonists, dose response, biochemical, TR-FRET (AID 463256); type: functional
Orexin receptor type 2 [4] = target: T2, Orexin receptor type 2 (Homo sapiens, UniProt O43614); assay: Counterscreen assay for antagonists of the orexin 1 receptor (OX1R; HCRTR1): Fluorescence-based cell-based dose response assay for antagonists of the orexin 2 receptor (OX2R; HCRTR2), run by assay provider.; type: functional
T2 sequence (O43614 whole entry): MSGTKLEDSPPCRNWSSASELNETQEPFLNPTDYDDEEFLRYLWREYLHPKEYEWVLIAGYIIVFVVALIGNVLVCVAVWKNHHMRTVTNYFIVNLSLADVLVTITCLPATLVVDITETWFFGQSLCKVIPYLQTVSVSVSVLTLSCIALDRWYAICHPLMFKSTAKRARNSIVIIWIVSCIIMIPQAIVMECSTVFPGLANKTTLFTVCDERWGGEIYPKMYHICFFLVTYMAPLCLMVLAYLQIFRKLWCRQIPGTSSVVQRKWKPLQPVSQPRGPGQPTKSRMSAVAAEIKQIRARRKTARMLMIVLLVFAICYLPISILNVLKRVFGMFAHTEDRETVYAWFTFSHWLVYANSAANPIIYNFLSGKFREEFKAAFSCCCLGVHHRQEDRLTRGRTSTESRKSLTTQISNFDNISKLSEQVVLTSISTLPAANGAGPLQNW

[5] = (§1) Counterscreen for antagonists of the orexin 1 receptor (OX1R; HCRTR1): Fluorescence-based cell-based high throughput dose response assay to identify antagonists of the parental CHO cell line. [Related pubchem assays (depositor defined):AID434989, AID435008, AID463079, AID485270, AID492963, AID492964, AID492965, AID493232, AID504699, AID504701]; type: functional
Orexin receptor type 2 [6] = target: T2, Orexin receptor type 2; assay: Counterscreen assay for antagonists of the orexin 1 receptor (OX1R; HCRTR1): Homogeneous Time Resolved Fluorescence (HTRF)-based cell-based dose response assay for antagonists of the orexin 2 receptor (OX2R; HCRTR2), run by assay provider.; type: functional
CHO-K1 = assay: as §1, with “Homogeneous time resolved fluorescence (HTRF)-based” for “Fluorescence-based”, “cell-based” for “cell-based high throughput”, “CHO-K1” for “CHO”; type: functional; settings: Cricetulus griseus;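 note: potency for inhibition of ATP-stimulated IP1 production as antagonists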
[7] = target: Peroxisome proliferator-activated receptor gamma/Nuclear receptor corepressor 2 (Homo sapiens, UniProt P37231+Q9Y618); assay: Counterscreen for NR2E3 inverse agonists: TR-FRET-based biochemical high throughput dose response assay to identify inverse agonists of the interaction between peroxisome proliferator-activated receptor gamma (PPARg) and nuclear receptor co-repressor 2 (NCOR2).; type: functional
[8] = target: T1, Orexin/Hypocretin receptor type 1; assay: Fluorescence-based cell-based high throughput dose response assay for antagonists of the orexin 1 receptor (OX1R; HCRTR1). [Related pubchem assays (depositor defined):AID434989, AID435008, AID463079, AID485270, AID492963, AID492964, AID492965, AID493232, AID504717, AID504718]; type: functional
[9] = target: T3, High affinity choline transporter 1 (Homo sapiens, UniProt Q9GZV3); assay: inhibitors of CHT choline uptake, dose response, cell-based, 3H-choline uptake, CHT LV-AA trafficking mutant, CRC (AID 602208); type: functional
T3 sequence (Q9GZV3 whole entry): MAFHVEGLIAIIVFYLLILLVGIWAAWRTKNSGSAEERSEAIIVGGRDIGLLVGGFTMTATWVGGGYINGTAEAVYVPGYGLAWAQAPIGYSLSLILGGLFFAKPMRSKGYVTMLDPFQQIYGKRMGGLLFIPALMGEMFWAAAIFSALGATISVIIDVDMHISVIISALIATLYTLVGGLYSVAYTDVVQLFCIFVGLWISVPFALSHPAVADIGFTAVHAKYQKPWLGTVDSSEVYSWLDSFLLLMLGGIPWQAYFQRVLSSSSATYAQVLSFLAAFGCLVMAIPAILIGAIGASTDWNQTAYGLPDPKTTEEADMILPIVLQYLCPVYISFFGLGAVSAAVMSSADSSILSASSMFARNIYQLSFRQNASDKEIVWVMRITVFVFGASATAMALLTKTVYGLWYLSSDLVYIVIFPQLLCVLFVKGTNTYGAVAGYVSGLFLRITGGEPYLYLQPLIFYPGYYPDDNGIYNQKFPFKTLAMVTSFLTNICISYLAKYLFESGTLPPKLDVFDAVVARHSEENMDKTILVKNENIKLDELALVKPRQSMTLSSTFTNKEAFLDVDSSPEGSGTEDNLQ

[10] = target: T3, High affinity choline transporter 1; assay: CHT inhibitors, dose response, cell-based, 5-point CRC, membrane potential dye (AID 504840); type: functional
[11] = target: T3, High affinity choline transporter 1; assay: CHT inhibitors, dose response, cell-based, 10-point CRC, membrane potential dye (AID 588401); type: functional;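 note: membrane potential dye fluorescence of choline-evoked depolarization via CHT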
[12] = target: T4, Glycogen synthase kinase-3 beta (Homo sapiens, UniProt P49841); assay: Inhibition of Human GSK-3 beta Activity Measured in Biochemical System Using Microfluidics - 2063-05_Inhibitor_Dose_DryPowder_Activity_Set2. [Related pubchem assays (depositor defined):AID2709]
T4 sequence (P49841 whole entry): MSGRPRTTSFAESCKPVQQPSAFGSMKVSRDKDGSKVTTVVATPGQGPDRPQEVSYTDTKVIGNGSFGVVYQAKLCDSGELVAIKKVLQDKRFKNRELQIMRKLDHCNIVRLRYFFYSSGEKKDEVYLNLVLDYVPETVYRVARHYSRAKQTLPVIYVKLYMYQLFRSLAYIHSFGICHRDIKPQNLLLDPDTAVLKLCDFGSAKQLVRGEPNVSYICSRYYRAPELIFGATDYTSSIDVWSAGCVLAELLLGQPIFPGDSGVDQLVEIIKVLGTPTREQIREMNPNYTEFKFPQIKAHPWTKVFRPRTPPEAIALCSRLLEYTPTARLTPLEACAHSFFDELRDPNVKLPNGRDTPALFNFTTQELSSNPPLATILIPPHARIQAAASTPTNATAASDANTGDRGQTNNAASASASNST

[13] = target: T5, Cyclin-dependent kinase 5/CDK5 activator 1 (Homo sapiens, UniProt Q00535); assay: CDK5-p25 kinase inhibitors, specificity check, dose response, selectivity assay for GSK-3 alpha inhibitor project, biochemical, microfluidic mobility shift, dry powder (AID 588430)
T5 sequence (Q00535 whole entry): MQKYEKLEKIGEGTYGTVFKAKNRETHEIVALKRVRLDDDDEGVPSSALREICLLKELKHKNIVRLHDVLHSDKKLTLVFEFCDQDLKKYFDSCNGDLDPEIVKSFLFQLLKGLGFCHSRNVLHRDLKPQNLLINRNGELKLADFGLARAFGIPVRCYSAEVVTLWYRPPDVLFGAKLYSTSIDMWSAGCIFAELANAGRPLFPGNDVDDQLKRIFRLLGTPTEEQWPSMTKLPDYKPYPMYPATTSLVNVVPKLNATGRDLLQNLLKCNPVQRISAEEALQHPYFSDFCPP
T5 sequence (Q15078 whole entry, further chain): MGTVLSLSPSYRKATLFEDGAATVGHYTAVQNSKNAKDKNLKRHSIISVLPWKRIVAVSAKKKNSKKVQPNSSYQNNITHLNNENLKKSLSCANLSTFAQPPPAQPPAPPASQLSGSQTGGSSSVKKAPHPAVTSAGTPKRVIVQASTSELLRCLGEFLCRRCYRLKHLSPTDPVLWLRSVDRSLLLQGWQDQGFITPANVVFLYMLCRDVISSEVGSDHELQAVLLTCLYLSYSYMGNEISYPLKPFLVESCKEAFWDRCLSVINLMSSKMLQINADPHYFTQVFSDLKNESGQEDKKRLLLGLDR

[14] = target: T4, Glycogen synthase kinase-3 beta; assay: GSK3beta kinase inhibitors, dose response, biochemical, microfluidics, dry powder samples, set 2 (AID 623989); type: functional
[15] = target: T6, Glycogen synthase kinase-3 alpha (Homo sapiens, UniProt P49840); assay: human GSK3 alpha kinase inhibition, dose response, selectivity assay for GSK3beta inhibitor project, biochemical, microfluidics, dry powder samples, set 2 (AID 623978); type: functional
T6 sequence (P49840 whole entry): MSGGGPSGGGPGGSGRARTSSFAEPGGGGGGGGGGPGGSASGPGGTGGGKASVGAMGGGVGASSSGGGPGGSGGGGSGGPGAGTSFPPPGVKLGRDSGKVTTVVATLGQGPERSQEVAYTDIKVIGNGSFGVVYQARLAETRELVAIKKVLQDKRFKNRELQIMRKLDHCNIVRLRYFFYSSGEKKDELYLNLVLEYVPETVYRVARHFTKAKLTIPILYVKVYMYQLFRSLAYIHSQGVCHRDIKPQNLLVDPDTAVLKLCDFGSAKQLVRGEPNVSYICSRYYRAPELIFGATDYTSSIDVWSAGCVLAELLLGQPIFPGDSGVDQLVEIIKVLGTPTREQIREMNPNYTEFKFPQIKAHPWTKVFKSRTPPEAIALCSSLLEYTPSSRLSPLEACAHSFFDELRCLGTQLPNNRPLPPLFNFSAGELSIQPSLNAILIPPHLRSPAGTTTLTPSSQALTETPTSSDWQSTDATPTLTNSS

[16] = target: T6, Glycogen synthase kinase-3 alpha; assay: Inhibition of Human GSK-3 alpha Activity Measured in Biochemical System Using Microfluidics - 2063-06_Inhibitor_Dose_DryPowder_Activity_Set2. [Related pubchem assays (depositor defined):AID2709]
[17] = target: T5, Cyclin-dependent kinase 5/CDK5 activator 1; assay: CDK5-p25 kinase inhibition, dose response, selectivity assay for GSK3beta inhibitor project, biochemical, microfluidic mobility shift, dry powder, set 2 (AID 623979); type: functional
[18] = target: Casein kinase I isoform delta (Homo sapiens, UniProt P48730); type: functional;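 note: measured as one member (CSNK1D) of a kinome panel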
Chain of Casein kinase I isoform delta (P48730 whole entry, canonical isoform): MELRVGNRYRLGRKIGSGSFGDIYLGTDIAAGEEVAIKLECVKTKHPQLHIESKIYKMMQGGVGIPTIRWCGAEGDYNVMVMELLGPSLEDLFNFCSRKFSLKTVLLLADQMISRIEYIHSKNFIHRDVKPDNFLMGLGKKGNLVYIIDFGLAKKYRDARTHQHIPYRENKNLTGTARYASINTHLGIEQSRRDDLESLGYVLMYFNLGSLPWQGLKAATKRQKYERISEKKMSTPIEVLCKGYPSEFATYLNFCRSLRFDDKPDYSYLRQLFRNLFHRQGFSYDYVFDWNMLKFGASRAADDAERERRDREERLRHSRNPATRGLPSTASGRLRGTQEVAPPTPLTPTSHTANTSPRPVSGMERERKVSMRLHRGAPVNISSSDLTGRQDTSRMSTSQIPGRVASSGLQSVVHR

[19] = target: Mitogen-activated protein kinase kinase kinase kinase 5 (Homo sapiens, UniProt Q9Y4K4); type: functional;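 note: measured as one member of a kinome-spanning kinase panel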
Aurora kinase B = Aurora kinase B (Homo sapiens, UniProt Q96GD4); type: functional
Chain of Aurora kinase B (Q96GD4 whole entry): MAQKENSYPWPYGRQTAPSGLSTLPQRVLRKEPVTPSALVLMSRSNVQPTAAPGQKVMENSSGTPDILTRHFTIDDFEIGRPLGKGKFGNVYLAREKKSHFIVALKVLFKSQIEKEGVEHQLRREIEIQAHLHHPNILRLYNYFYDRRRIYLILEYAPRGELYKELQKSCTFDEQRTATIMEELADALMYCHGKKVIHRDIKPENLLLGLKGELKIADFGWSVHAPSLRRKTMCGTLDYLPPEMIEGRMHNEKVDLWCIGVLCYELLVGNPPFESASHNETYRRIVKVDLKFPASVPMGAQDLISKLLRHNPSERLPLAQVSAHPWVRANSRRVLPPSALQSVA

[20] = target: T7, Receptor-type tyrosine-protein kinase FLT3 (Homo sapiens, UniProt P36888); type: functional;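 note: FLT3 was tested as one member of a kinome-wide kinase panel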
T7 sequence (P36888 whole entry): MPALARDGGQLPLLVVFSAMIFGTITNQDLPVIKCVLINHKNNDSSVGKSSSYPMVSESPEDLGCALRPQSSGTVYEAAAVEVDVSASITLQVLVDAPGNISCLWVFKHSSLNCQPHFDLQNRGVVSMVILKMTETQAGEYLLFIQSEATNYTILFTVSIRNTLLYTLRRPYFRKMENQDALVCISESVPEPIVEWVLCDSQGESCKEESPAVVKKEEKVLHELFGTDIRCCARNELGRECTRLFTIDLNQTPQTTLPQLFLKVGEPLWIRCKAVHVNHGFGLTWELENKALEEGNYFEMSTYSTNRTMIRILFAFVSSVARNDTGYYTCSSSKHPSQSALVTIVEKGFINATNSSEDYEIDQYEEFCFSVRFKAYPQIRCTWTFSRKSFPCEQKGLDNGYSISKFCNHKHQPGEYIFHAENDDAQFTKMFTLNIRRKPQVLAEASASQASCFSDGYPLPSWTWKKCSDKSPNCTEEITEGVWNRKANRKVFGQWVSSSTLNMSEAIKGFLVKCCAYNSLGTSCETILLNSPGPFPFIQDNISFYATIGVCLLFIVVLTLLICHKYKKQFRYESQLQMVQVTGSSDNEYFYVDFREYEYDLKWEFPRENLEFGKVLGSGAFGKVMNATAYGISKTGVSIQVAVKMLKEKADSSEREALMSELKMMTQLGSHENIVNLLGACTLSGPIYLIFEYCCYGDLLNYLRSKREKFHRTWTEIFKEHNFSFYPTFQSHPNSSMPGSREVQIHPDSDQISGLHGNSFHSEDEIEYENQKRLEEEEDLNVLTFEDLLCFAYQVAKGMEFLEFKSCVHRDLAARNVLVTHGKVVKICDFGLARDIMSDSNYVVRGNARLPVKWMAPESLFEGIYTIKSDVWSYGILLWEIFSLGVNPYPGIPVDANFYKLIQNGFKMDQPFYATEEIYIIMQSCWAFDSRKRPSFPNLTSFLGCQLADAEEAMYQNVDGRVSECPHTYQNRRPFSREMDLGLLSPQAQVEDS

[21] = target: Mitogen-activated protein kinase kinase kinase 20 (Homo sapiens, UniProt Q9NYL2); type: functional
[22] = target: Dual specificity protein kinase CLK4 (Homo sapiens, UniProt Q9HAZ1); type: functional
[23] = target: Mitogen-activated protein kinase kinase kinase kinase 4 (Homo sapiens, UniProt O95819); type: functional
Chain of Mitogen-activated protein kinase kinase kinase kinase 4 (O95819 whole entry): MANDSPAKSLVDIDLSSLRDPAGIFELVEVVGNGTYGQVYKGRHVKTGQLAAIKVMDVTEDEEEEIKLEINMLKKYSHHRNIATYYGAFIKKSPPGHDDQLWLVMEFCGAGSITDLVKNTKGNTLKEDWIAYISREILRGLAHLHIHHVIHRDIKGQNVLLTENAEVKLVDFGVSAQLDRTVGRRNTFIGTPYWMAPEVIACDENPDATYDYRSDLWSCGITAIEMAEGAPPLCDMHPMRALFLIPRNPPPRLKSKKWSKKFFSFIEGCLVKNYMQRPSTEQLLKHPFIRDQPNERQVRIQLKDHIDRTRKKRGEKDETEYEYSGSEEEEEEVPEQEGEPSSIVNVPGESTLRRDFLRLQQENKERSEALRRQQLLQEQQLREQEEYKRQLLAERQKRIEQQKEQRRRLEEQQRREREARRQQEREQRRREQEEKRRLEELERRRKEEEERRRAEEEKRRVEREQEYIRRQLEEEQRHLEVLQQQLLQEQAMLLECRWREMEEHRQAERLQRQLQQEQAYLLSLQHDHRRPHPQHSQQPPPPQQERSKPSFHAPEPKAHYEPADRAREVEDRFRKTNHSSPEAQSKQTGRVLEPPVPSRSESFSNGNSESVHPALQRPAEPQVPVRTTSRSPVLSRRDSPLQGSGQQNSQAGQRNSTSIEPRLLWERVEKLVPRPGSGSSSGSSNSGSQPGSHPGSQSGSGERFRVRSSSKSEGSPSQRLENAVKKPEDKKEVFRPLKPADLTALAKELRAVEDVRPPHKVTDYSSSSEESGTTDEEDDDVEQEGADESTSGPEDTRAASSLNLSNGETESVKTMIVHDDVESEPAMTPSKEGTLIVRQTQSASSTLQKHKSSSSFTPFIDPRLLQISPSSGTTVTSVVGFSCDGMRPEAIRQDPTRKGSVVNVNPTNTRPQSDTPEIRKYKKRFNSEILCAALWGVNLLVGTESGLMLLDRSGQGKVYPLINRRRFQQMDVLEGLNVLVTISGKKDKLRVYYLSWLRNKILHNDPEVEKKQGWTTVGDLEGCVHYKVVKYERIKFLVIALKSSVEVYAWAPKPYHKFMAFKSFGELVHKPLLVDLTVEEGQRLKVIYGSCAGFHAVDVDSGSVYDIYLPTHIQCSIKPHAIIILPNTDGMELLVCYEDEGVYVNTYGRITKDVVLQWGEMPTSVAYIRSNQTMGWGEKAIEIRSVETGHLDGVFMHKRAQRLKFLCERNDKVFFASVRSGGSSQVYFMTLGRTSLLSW

[24] = Primary Beta Cell Apoptosis assay Measured in Cell-Based System Using Plate Reader - 2061-07_Inhibitor_Dose_DryPowder_Activity_Set2. [Related pubchem assays (depositor defined):AID435007]; type: functional; settings: Homo sapiens
INS1 [25] = assay: Glucose-induced Insulin secretion ELISA Measured in Cell-Based System Using Plate Reader - 2061-05_Inhibitor_Dose_DryPowder_Activity. [Related pubchem assays (depositor defined):AID435007]; type: functional; settings: Rattus norvegicus
INS1 [26] = assay: caspase-3/7 inhibition in cytokine-treated INS-1E, dose response, beta-cell apoptosis inhibitor project, cell-based, caspase luminescence, dry powder (AID 488848); type: functional; settings: Rattus norvegicus
[27] = inhibitors of cytokine-induced nitrite release, dose response, cell-based, Griess absorbance, INS-1E, dry powder, set 3 (AID 488870); type: functional, Rattus norvegicus
INS1 [28] = assay: Primary beta islet insulin ELISA Measured in Cell-Based System Using Plate Reader - 2061-09_Inhibitor_Dose_DryPowder_Activity. [Related pubchem assays (depositor defined):AID435007]; type: functional; settings: Rattus norvegicus
INS1 [29] = assay: protection from cytokine-induced mitochondrial depolarization, dose response, cell-based, INS-1E, JC-1 fluorescence ratio, dry powder (AID 488931); type: functional; settings: Rattus norvegicus
[30] = target: Apoptotic protease-activating factor 1 (Homo sapiens, UniProt O14727); type: functional
HEK293 = assay: inhibitors of LMP1-driven NF-kB reporter, dose response, cell-based, HEK293, luciferase, cherry-pick (AID 588343); type: functional; settings: Homo sapiens

AC50 [1]: 87 µM (active)
Compound: COc1ccccc1NC(=O)Cn1nnc(-c2ccccc2NS(=O)(=O)c2ccccc2)n1

Compound: O=C(CSc1ccc(-c2cccs2)nn1)c1cccs1
IC50 [2]: 2.28 µM (active)
IC50 [3]: 8.97 µM (active)
IC50 (Orexin receptor type 2 [4]): > 88.8 µM (inactive)
IC50 [5]: > 49.8 µM (inactive)
IC50 (Orexin receptor type 2 [6]): > 50 µM (inactive)
IC50 (CHO-K1): > 66.2 µM (inactive)
IC50 [7]: 9.5 µM (active)
IC50 [8]: > 0.614 µM (active)

Compound: CCCN1CCC(Oc2cccc(C(=O)NCCc3ccccc3)c2)CC1
IC50 [9]: 3.76 µM (active)
IC50 [10]: 10 µM (active)
IC50 [11]: 4.22 µM (active)

AC50 [12]: 12.4 nM (active) and < 16 nM (active)
AC50 [13]: < 10 nM (active) and < 16 nM (active)
AC50 [14]: 11.3 nM (active) and < 30 nM (active)
AC50 [15]: 121 nM (active) and 281 nM (active)
AC50 [16]: 144 nM (active) and 206 nM (active)
AC50 [17]: < 0.023 µM (active)
Compound: O=C1Nc2ccc3ncsc3c2/C1=C/Nc1ccc(S(=O)(=O)Nc2ccccn2)cc1

Ki [18]: 2 µM (active)
Ki [19]: 3.98 µM (active)
Ki (Aurora kinase B): 2.51 µM (active)
Ki [20]: 1.26 µM (active)
Ki [21]: 5.01 µM (active)
Ki [22]: 3.16 µM (active)
Ki [23]: 6.31 µM (active)
Compound: c1cncc(Nc2ncc(-c3ccncn3)c(-c3ccco3)n2)c1

Compound: C[C@@H]1CN([C@@H](C)CO)C(=O)c2cccc(NC(=O)Nc3cccc4ccccc34)c2O[C@H]1CN(C)S(=O)(=O)c1ccc2c(c1)OCCO2
AC50 [24]: 6.7 µM (active)
AC50 (INS1 [25]): 4.79 µM (active)
AC50 (INS1 [26]): 2.22 µM (active)
AC50 [27]: 33.7 µM (active)
AC50 ([27]; Rattus norvegicus): 57.6 µM (active)
AC50 (INS1 [28]): < 0.5 µM (active)
AC50 (INS1 [29]): 83.8 µM (active)

Compound: CCN(c1ccccc1)S(=O)(=O)c1ccc(Cl)c(NC(=O)Nc2ccc(Cl)cc2C#N)c1
IC50 [30]: 8.98 µM (active)
AC50 (HEK293): 4.55 µM (active)
